Columns and labels:
S. aureus [1] = assay: Minimal inhibitory concentration (MIC), Example V; type: cell-based; settings: Staphylococcus aureus
Method: (§1) THE ANTIBACTERIAL SCREEN - EXAMPLE V
(§2) THE ANTIBACTERIAL SCREEN - EXAMPLES W - Z (Autotiter IV)
(§3) (a) Compounds. All compounds to be screened are weighed (approx. 10 mg) on the day preceding the test date. Each compound is solubilized on the day of assay in appropriate solvent and diluted automatically in the Autotiter IV with distilled water (buffer can be employed here also).
(§4) Bacteria: Staphylococcus aureas Smith (or 209), Escherichia coli AB 1932-1, 1100/B22 and Vogel, Streptococcus pyogenes C203 Salmonella typhimurium 14028, Bacillus subtilis 6051-1, Klebsiella pneumoniae 10031, Pseudomonas aeruginosa 9027, Bordetella bronchiseptica 4617 and Staphylococcus epidermidis 12228.
(§5) (c) Inocula. Prior to utilization in the Autotiter IV, all bacteria are cultured for 18-20 hr. (37° C) in tryptose phosphate broth (TP), except, S. pyogenes C203, which is cultured in Brain Heart Infusion broth plus 10% normal horse serum. Immediately prior to testing, each culture is adjusted to an optical density of 0.10 (650 nm), employing a Bausch & Lomb Spectronic 20, and diluted subsequently into double strength medium to approximately 2 × 10^5 viable organisms per ml.
(§6) 1. An automated injector system dispenses 0.05 ml of diluent (sterile H2 O or buffer) to all cups of the autotiter trays from rows 2 through 7.
(§7) 2. The loops (for sequential dilutions of the compounds are moistened by immersion into 70% ethyl alcohol. After removal of excess alcohol by blotting, the loops are moved to the first row of cups in the autotray containing 0.10 ml of the compound to be diluted and tested (usually, this initial concentration is 500 to 1000 mcg/ml, but can be varied upward or downward). The loops are lowered and sequentially transfer the diluted solutions of the compound through row 7.
(§8) Immediately after each dilution is made, each cup is automatically inoculated with 0.05 ml of the appropriate test organism. This inoculation derives from a second injector system containing the organism in double-strength medium. The total operation consists of the automatic dilution of a single compound in each of 8 rows of the Autotiter try.
(§9) After these operations, we reverse the tray and a second compound is diluted over the other one-half of the tray and inoculated, subsequently, with 8 organisms. Thus, for each Autotiter Tray, two compounds are screened against 8 different organisms at dilutions ranging from 1:2 to 1:128.
(§10) (e) Incubation. The inoculated Autotiter trays are incubated at 37° C for 18 - 20 hr. At the end of this period, each tray is examined for the presence or absence of growth (turbidity). The lowest concentration of the compound inhibiting growth is recorded as the minimal inhibitory concentration (MIC).

P. aeruginosa [2] = assay: Minimal inhibitory concentration (MIC), Example V; type: cell-based; settings: Pseudomonas aeruginosa
Method: as §1, §2, §3, §4, §5, §6, §7, §8, §9, §10

C. albicans = assay: Minimal inhibitory concentration (MIC), Example V; type: cell-based; settings: Candida albicans
From the text: MINIMAL INHIBITORY CONCENTRATION OF 2-AMINO-2-METHYL-1-PROPYL […]
as §1

K. pneumoniae [3] = assay: Minimal inhibitory concentration (MIC), Example V; type: cell-based; settings: Klebsiella pneumoniae
Method: (§11) MINIMAL INHIBITORY CONCENTRATION OF 2-AMINO-2-METHYL-1-PROPYL
(§12) ^a Minimal inhibitory concentration expressed in parts per million
(§13) sequence inhibited the test organism at the higher concentrations.
as §1
Klebsiella pneumoniae ATCC# 10031
as §2, §3, §4, §5, §6, §7, §8, §9, §10

E. coli [4] = assay: Minimal inhibitory concentration (MIC), Example V; type: cell-based; settings: Escherichia coli
From the text: as §11, §12, §13, §1

T. mentagrophytes = assay: Minimal inhibitory concentration (MIC), Example V; type: cell-based; settings: Trichophyton mentagrophytes
From the text: as §11, §12, §13, §1

A. niger = assay: Minimal inhibitory concentration (MIC), Example V; type: cell-based; settings: Aspergillus niger
From the text: as §11, §12, §13, §1

S. pyogenes = assay: Minimal inhibitory concentration (MIC), Example V; type: cell-based; settings: Streptococcus pyogenes
[5] = Solubility in 30% methanol: 0.1 M sodium dihydrogen phosphate, pH 7.0; type: physicochemical; settings: 0.1 m nah2po4, pH 7, organic solvent or mixture, Concentration (footnote: Solubility in 30% methanol: 0.1 M sodium dihydrogen phosphate, pH 7.0)
P. aeruginosa [6] = assay: Contact germicidal efficiency (sterilization time); type: cell-based, Pseudomonas aeruginosa; settings: Example Z
Method: (§14) CONTACT GERMICIDAL EFFICIENCY OF N-CHLORAMINES AS A FUNCTION
(§15) ^a Time intervals screened 0.5, 1, 2, 3, 4 and 5 minutes.
(§16) ^a Time intervals screened 0.5, 1, 2, 3, 4, 5, 6, 7, 8, 9 and 10
(§17) ^a Time intervals screened 0.5, 1, 2, 3, 4, and 5 minutes.
(§18) ^b Time intervals screened 0.5, 1, 2, 3, 4, 5, 6, 7, 8, 9 and 10
(§19) Immediately preceding the screen, the compound is weighed and diluted with a buffer or other solvent to give the final concentration desired. The buffer or solvent chosen depends on the conditions of the screen and could be one of the following: 0.1 M NaOAc, pH 4.6; 0.1 M NaH2 PO4, pH 7.0; 0.1 M Na2 B4 O7, pH 8.8; 35% methanol in one of the aforementioned buffers; 10% Triton × 100 in buffer, etc.
(§20) The positive chlorine concentration of the test solution is then determined iodometrically.
(§21) Media used for the Screen are Nutrient Broth, BBL# 11479 and Nutrient Agar, BBL# 11472 prepared according to label directions. The broth is dispensed in 75 ml amounts of flasks for overnight cultures and in 5 ml amounts to culture tubes for subculturing during the Screen. Agar plates are prepared as usual.
(§22) Overnight cultures are prepared by inoculating from stock cultures into the 75 ml flasks of nutrient broth and incubating for 15 hours at 37° C.
(§23) The iodometrically characterized test solution is dispensed in 5 ml amounts to seven small stoppered flasks. The organisms are screened one at a time as follows:
(§24) A 0.2 ml portion of the overnight culture is inoculated into 5 ml of 0.9% NaCl for use in controls. A 0.2 ml portion of the overnight culture is inoculated into a flask containing 5 ml of the test solution, an automatic timer is simultaneously triggered and the solution mixed. At time intervals of 30 seconds, 1, 2, 3, 4, 5, 6, 7, 8, 9, and 10 minutes a loopful of the inoculated solution is subcultured into 5 ml of sterile nutrient broth and mixed by a Vortex Genie Mixer, the high dilution serving to stop the action of the compound. At the end of the ten minute screen, the entire procedure is repeated for each of the remaining six organisms. All of the subculture tubes are incubated at 37° C and checked for signs of growth by turbidity at 24 hr., 48 hr., 3, 5, and 7 days. The earliest subculture time at which no growth is present in the subculture tube is considered the endpoint and is recorded as that time, e.g., 7 minutes.
(§25) The test solution is prepared and characterized as above but is made up at twice the concentration desired. The solution is diluted 1:1 with Rehydrated Tissue Culture Dessicated Horse Serum, Difco #5357-72 and dispensed in a 5 ml amount to a small flask. The mixture is incubated at Room Temperature for 30 minutes to allow denaturation of the compound by the serum and then screened as above.
(§26) The 5 ml mixture of serum and test solution are prepared in sequence to allow as close to 30 minutes as possible before the beginning of the screen of each organism.
as §4

B. bronchiseptica = assay: Contact germicidal efficiency (sterilization time); type: cell-based, Bordetella bronchiseptica; settings: Example Z
Method: as §14, §15, §16, §17, §18, §19, §20, §21, §22, §23, §24, §25, §26, §4

S. aureus [7] = assay: Contact germicidal efficiency (sterilization time); type: cell-based, Staphylococcus aureus; settings: Example Z, pH 4.6, in presence of horse serum, 5800 ppm (1057 PPMCl+)
Method: (§27) CONTACT GERMICIDAL EFFICIENCY OF
as §15, §16, §17, §18, §19, §20
as §21, with “usual. […]” for “usual.”
(§28) A 0.2 ml portion of the overnight culture is inoculated into 5 ml of 0.9% NaCl for use in controls. […] The earliest subculture time at which no growth is present in the subculture tube is considered the endpoint and is recorded as that time, e.g., 7 minutes. […]

K. pneumoniae [8] = assay: Contact germicidal efficiency (sterilization time); type: cell-based, Klebsiella pneumoniae; settings: Example Z
Method: as §14, §15, §16, §17, §18, §19, §20, §21, §22, §23, §24, §25, §26, §4

S. epidermidis = assay: Contact germicidal efficiency (sterilization time); type: cell-based, Staphylococcus epidermidis; settings: Example Z, S. pidermidis, pH 4.6
Method: as §14, §15, §16, §17, §18, §19, §20, §21, §22, §23, §24, §25, §26, §4

E. coli [9] = assay: Contact germicidal efficiency (sterilization time); type: cell-based, Escherichia coli; settings: Example Z, pH 4.6, in presence of horse serum, 5800 ppm (1057 PPMCl+)
Method: as §27, §15, §16, §17, §18, §19, §20
as §21, with “usual. […]” for “usual.”
as §28

[10] = prior art; cited from earlier work
[11] = pH 4.6, absence of horse serum, IV j 79 ppm (21 PPMCl+), IV k 5800 (1057), IV l 1112 (209)
[12] = pH 4.6, in presence of horse serum, 5800 ppm (1057 PPMCl+)

SMILES	MIC (S. aureus [1])	MIC (P. aeruginosa [2])	MIC (C. albicans)	MIC (K. pneumoniae [3])	MIC (E. coli [4])	MIC (T. mentagrophytes)	MIC (A. niger)	MIC (S. pyogenes)	solubility [5]	Sterilization Time (P. aeruginosa [6]; [11])	Sterilization Time (P. aeruginosa [6]; [12])	Sterilization Time (B. bronchiseptica; [11])	Sterilization Time (B. bronchiseptica; [12])	Sterilization Time (S. aureus [7])	Sterilization Time (K. pneumoniae [8]; [11])	Sterilization Time (K. pneumoniae [8]; [12])	Sterilization Time (S. epidermidis; absence of horse serum, IV j 79 ppm (21 PPMCl+), IV k 5800 (1057), IV l 1112 (209))	Sterilization Time (S. epidermidis; in presence of horse serum, 5800 ppm (1057 PPMCl+))	Sterilization Time (E. coli [9])	Deactivation by denaturing agents (e.g., horse serum) [10]
CCCCCCCC(=O)OCC(C)(C)N.Cl [III e, 2-Amino-2-methyl-1-propyl octanoate hydrochloride]	> 62.5 mg/L	> 62.5 mg/L	> 62.5 mg/L	> 62.5 mg/L	> 62.5 mg/L	> 62.5 mg/L	> 62.5 mg/L	> 62.5 mg/L	1.04 mg/mL	–	–	–	–	–	–	–	–	–	–	–
C[n+]1cccc(C(=O)OCC(C)(C)N(Cl)Cl)c1 [IV k, 2-N,N-Dichloroamino-2-methyl-1-propyl nicotinate methylsulfate]	> 250 mg/L	> 250 mg/L	> 250 mg/L	> 250 mg/L	> 250 mg/L	125 mg/L	125 mg/L	> 250 mg/L	–	2 min	2 min	1 min	2 min	6 min	2 min	2 min	4 min	4 min	0.5 min	–
NCl [NH2 Cl, chloramine]	–	–	–	–	–	–	–	–	–	–	–	–	–	–	–	–	–	–	–	readily deactivated
ClNCl [NHCl2]	–	–	–	–	–	–	–	–	–	–	–	–	–	–	–	–	–	–	–	readily deactivated

From patent US4092420A, “Novel soft N-chloroamino alcohol derivatives exhibiting antibacterial activity” (INTERx Research Corporation, priority 1977, dated 1978)
